One data set concerns HUVEC cells. Put plainly: WST-1 proliferation assay, HUVEC. It counts as cell-based. The note with it: for cytotoxicity for endothelial cell lines (HUVEC cells) in culture: FIG. 1 cell survival; for IC50: Homo sapiens, HUVEC, 72 h, read-out: Anti-proliferative activity on HUVEC cells (IC50). The method, then: (§1) Cells were grown as subconfluent monolayer and cultured in 75 cm^2 flasks at 37° C., 5% CO2 in a humidified atmosphere, and medium was changed every two days. Only cells from passages 2-6 were used for the experiments.
All cells were detached with 3 ml of trypsin/EDTA (chelator of calcium and magnesium ions) (Lonza), incubated for 5 min at 37° C., and examined using a microscope to ensure that the cells were detached and floating. […] The supernatant was removed and the cell pellet resuspended in […] of culture medium. 50 μl of this solution were transferred in 20 μl of isotonic solution and the cells were counted by count cellular (Beckman Coulter).
(§2) The cell proliferation WST-1 assay is a colorimetric assay for the quantification of cell proliferation and viability, based on the enzymatic cleavage of the tetrazolium salt WST-1 added to the culture medium, to a water soluble colored formazan dye, detected by absorbance at 450 nm, by mitochondrial succinate-tetrazolium reductase in viable cells. An augmentation in enzyme activity will then lead to an increase in the amount of formazan dye formed, which directly correlates to the number of metabolically active cells in the culture.
After an incubation period of 72 h, at day 4, were prepared the […] medium with reagent WST-1 […] ([…]). The medium was removed from the 96 microplate and 200 μl of solution WST-1/medium were added for each well. The cells were incubated at 37° C. in a humidified atmosphere of 5% CO2 for 1 h 30 and the absorbance at 450-655 nm was measured by Microplate Manager 5.2 (Bio-Rad).

In another data set the test system is U2OS. The data set can be described thus: WST-1 proliferation assay, U2OS. In kind it is cell-based. To be noted: Homo sapiens; for IC50: Osteosarcoma U2OS, 72 h, read-out: Anti-proliferative activity IC50 (μM) ± SD; for inhibition at 0.1 µM / inhibition at 0.5 µM / inhibition at 1 µM: U2OS.
Description: (§3) Several cancer cell lines were used: breast cancer cells (MDA-MB-231 (ATTCC® Number HTB-26™), MDA-MB-436 (ATTCC® Number HTB-130™), MDA-MB-438, BT-474 (ATTCC® Number HTB-20™)); cervical cancer cells (HeLa (ATTCC® Number CCL-2™)); colon cancer cells (HCT-116 (ATTCC® Number CCL-247™) and HT-29 (ATTCC® Number HTB-38™)); osteosarcoma cells (U2OS (ATTCC® Number HTB-96™)); pancreas cancer cells (MIA PaCa-2 (ATTCC® Number CRL-1420™) and Panc-10.5 (ATTCC® Number CRL-2547™)); prostate cancer cells (PC-3 (ATTCC® Number CRL-1435™) and LNCaP (ATTCC® Number CRL-1740™)); brain cancer cells (U87 glioblastoma (ATTCC® Number HTB-14™) and SH-SYSY neuroblastoma (ATTCC® Number CRL-2266™)).
All the cancer cell lines were maintained in cultured in DMEM GlutaMAX™ (GIBCO Invitrogen, France, cat no 31966047) enhanced with 10% foetal bovine serum (GIBCO Invitrogen, France, cat no 10270-106) and 1% penicillin G/streptomycin (GIBCO Invitrogen, France, cat no 15140-122). Only Panc-10.5 cells were cultivated in RPMI 1640 medium (Gibco) supplemented with 2 mM L-glutamine, 1.5 g/L sodium bicarbonate, 4.5 g/L glucose, 10 mM HEPES, 1 mM sodium pyruvate, 10 Units/ml human insulin, […] (SVF): 15% (75 ml in 500 ml of medium).
as §1
After observation of cells under the microscope, old media were removed and the adherent cells washed gently twice with PBS (Phosphate Buffer Saline, —Ca^2+, —Mg^2+, Lonza cat no: 17-512F/12). All cells were detached with 3 ml of trypsin/EDTA (chelator of calcium and magnesium ions) (Lonza), incubated for 5 min at 37° C., and examined using a microscope to ensure that the cells were detached and floating. Then, 3 ml TNS (Trypsin Neutralizing Solution, Lonza, France, cat no CC-5002) or of culture medium were added to inactivate the trypsin, and the cell suspension was transferred in a falcon and centrifuged for 7 min at 1400 rpm. The supernatant was removed and the cell pellet resuspended in […] of culture medium. 50 μl of this solution were transferred in 20 μl of isotonic solution and the cells were counted by count cellular (Beckman Coulter). At day 0, 200 μl of cellular suspension (3.10^3 cells/well for the HUVEC cells, breast cancer cells (MDA-MB-231 1.10^4 cells/well, MDA-MB-436 1.10^4 cells/well, MDA-MB-438 2.10^4 cells/well, BT-474 2.5.10^4 cells/well); cervical cancer cells (HeLa 5.000 cells/well); colon cancer cells (HCT-116 5.10^3 cells/well, HCT-29 1.1.10^4 cells/well); osteosarcoma cells (U2OS 8.10^3 cells/well); pancreas cancer cells (MIA PaCa-2 5.10^3 cells/well, Panc-10.5 1.5.10^4 cells/well); prostate cancer cells (PC-3 4.10^3 cells/well, LNCaP 2.10^4 cells/well); brain cancer cells (U87 5.10^3 cells/well, SH-SYSY 8.10^4 cells/well)) were then plated on 96 well plates and incubated at 37° C. in a humidified atmosphere of 5% CO2 for 24 h.
At day 1, the compounds 1 or 2 of the invention were added at increasing concentrations (0.1-10 μM) in the wells and plates were incubated at 37° C. in a humidified atmosphere of 5% CO2 for 72 h.
as §2
After an incubation period of 72 h, at day 4, were prepared the 19 ml medium with reagent WST-1 1 ml ([…]). The medium was removed from the 96 microplate and 200 μl of solution WST-1/medium were added for each well. […]
For orientation: Tetrazolium dyes change colour on reduction, which living cells bring about.

Another data set concerns LNCaP. Put plainly: WST-1 proliferation assay, LNCaP. The note with it: Homo sapiens; Prostate LNCaP, 72 h; read-out: Anti-proliferative activity IC50 (μM) ± SD. It counts as cell-based.
Description: as §3, with “CRL-2266™)). […]” for “CRL-2266™)).”
After observation of cells under the microscope, old media were removed and the adherent cells washed gently twice with PBS (Phosphate Buffer Saline, —Ca^2+, —Mg^2+, Lonza cat no: 17-512F/12). […] 50 μl of this solution were transferred in 20 μl of isotonic solution and the cells were counted by count cellular (Beckman Coulter). […]
The cell proliferation WST-1 assay is a colorimetric assay for the quantification of cell proliferation and viability, based on the enzymatic cleavage of the tetrazolium salt WST-1 added to the culture medium, to a water soluble colored formazan dye, detected by absorbance at 450 nm, by mitochondrial succinate-tetrazolium reductase in viable cells. […]

The next data set deals with MDAMB-231 cells. The data set can be described thus: Adhesion test (crystal violet), MDA-MB-231. In kind it is cell-based, Human. To be noted: MDAMB-231, FIGS. 1A-C. The method, then:
The crystal violet (hexamethyl pararosaniline chloride) is used as biologic colorant. It enters in the living cells, allowing the visualisation of the dark purple adherent living cells on the bottom of the plate.
After an incubation period of 72 h, the adherent cells were fixed with […] paraformaldehyde
3% for 15 min at room temperature. The medium and non-adherent cells were removed, and the cells were washed extensively with […] PBS (+Ca^2+ and +Mg^2+) (Lonza) and then stained with 50 μl of crystal violet 0.04% for 30 min at room temperature. The cells were washed gently 3 times with 100 μl PBS and were permeabilised with 100 μl triton 2% for 15 min. The microplate was stirred to obtain a homogenous solution and absorbance was quantified at 580 nm by Microplate Manager 5.2.
The percentage of inhibition is calculated as follow: % inhibition=100−[(DOsample/DOcontrol)*100].

By IC50 is commonly meant the concentration needed to halve the response being measured. In general, inhibition refers to the share of the control response that was lost under treatment.

With `Cc1ccc(-c2nc3ccccc3[nH]2)cc1NC(=S)NC(=O)c1ccc2c(c1)OCCO2` [Compound 1, N-[5-(1H-benzimidazol-2-yl)-2-methylphenyl]-N′-(2,3-dihydro-1,4-benzodioxin-6-ylcarbonyl)thiourea], in the data set on HUVEC cells, the “cytotoxicity for endothelial cell lines (HUVEC cells) in culture” value is “cytotoxic” and the IC50 turned out to be 0.2 ± 0.01 µM. In the data set with U2OS, the IC50 was 2.3 ± 0.04 µM, testing at 0.1 µM gave an inhibition of 15%, the inhibition at 0.5 µM came out at 29% and 1 µM produced 36% inhibition. The IC50 with LNCaP stood at 1.4 ± 0.13 µM. Besides, the “inhibition of adhesion of cancer cells in culture” value in the data set on MDAMB-231 cells is recorded as “inhibited the adhesion”.
Turning to `O=C(NC(=S)Nc1cccc(-c2nc3ccccc3[nH]2)c1)c1ccc2c(c1)OCCO2` [Compound 2, N-[3-(1H-benzimidazol-2-yl)phenyl]-N′-(2,3-dihydro-1,4-benzodioxin-6-ylcarbonyl)thiourea], in the data set on HUVEC cells, the “cytotoxicity for endothelial cell lines (HUVEC cells) in culture” value was “cytotoxic” and the IC50 was 0.05 ± 0.01 µM. Moreover, in the data set with U2OS, the IC50 came out at 1.8 ± 0.05 µM, at 0.1 µM the inhibition was 31%, the inhibition at 0.5 µM worked out at 41% and the inhibition at 1 µM came out at 44%. The IC50 in the data set on LNCaP worked out at 1.3 ± 0.15 µM. In addition, the “inhibition of adhesion of cancer cells in culture” value in the data set with MDAMB-231 cells is reported as “inhibited the adhesion”.

For the origin of these results see US20130041005A1, “PHARMACEUTICAL COMPOSITIONS COMPRISING NEUROPILIN INHIBITORS, AND THEIR USE FOR THE PREVENTION AND/OR TREATMENT OF ANGIOGENIC DISORDERS AND CANCERS” (TRAGEX PHARMA, priority 2011, published 2013).
